Test results: the NIST ThermoML archive (doi:10.1016/j.jct.2013.10.034)

Assay: excess molar enthalpy (molar enthalpy of mixing); xn = mol fraction of the nth substance listed
Conditions: 298.15 K, 100 kPa, Liquid, Calvet calorimetry

CCCC[N+]1(C)CCCCC1.N#C[N-]C#N [1-butyl-1-methylpiperidinium dicyanamide] + O
Conditions | excess molar enthalpy [kcal/mol]
x1 = 0.0639 | -0.0355
x1 = 0.0706 | -0.0403
x1 = 0.0846 | -0.0509
x1 = 0.101 | -0.0634
x1 = 0.1186 | -0.0769
x1 = 0.1379 | -0.0917
x1 = 0.1607 | -0.109
x1 = 0.1873 | -0.127
x1 = 0.2173 | -0.145
x1 = 0.249 | -0.16
x1 = 0.2797 | -0.172
x1 = 0.3103 | -0.179
x1 = 0.3414 | -0.183
x1 = 0.371 | -0.185
x1 = 0.4062 | -0.184
x1 = 0.4376 | -0.181
x1 = 0.4741 | -0.176
x1 = 0.5173 | -0.167
x1 = 0.5418 | -0.162
x1 = 0.5687 | -0.155
x1 = 0.5984 | -0.146
x1 = 0.6314 | -0.136
x1 = 0.6683 | -0.124
x1 = 0.6951 | -0.115
x1 = 0.7241 | -0.105
x1 = 0.7557 | -0.0942
x1 = 0.7902 | -0.0816
x1 = 0.8081 | -0.0749
x1 = 0.8268 | -0.0677
x1 = 0.8465 | -0.0603
x1 = 0.8671 | -0.0529
x1 = 0.8887 | -0.0446
x1 = 0.9114 | -0.0354
x1 = 0.9354 | -0.0256
x1 = 0.9606 | -0.0152
x1 = 0.9872 | -0.00537

CCCC[N+]1(C)CCCC1.N#CN=C=[N-] [1-butyl-1-methylpyrrolidinium dicyanamide] + O
Conditions | excess molar enthalpy [kcal/mol]
x1 = 0.0674 | -0.0479
x1 = 0.0744 | -0.0542
x1 = 0.0892 | -0.0681
x1 = 0.1064 | -0.0843
x1 = 0.1248 | -0.102
x1 = 0.145 | -0.121
x1 = 0.1688 | -0.142
x1 = 0.1964 | -0.164
x1 = 0.2275 | -0.185
x1 = 0.2604 | -0.203
x1 = 0.2921 | -0.215
x1 = 0.3236 | -0.223
x1 = 0.3554 | -0.227
x1 = 0.3857 | -0.228
x1 = 0.4217 | -0.225
x1 = 0.4535 | -0.22
x1 = 0.4906 | -0.212
x1 = 0.5342 | -0.2
x1 = 0.5589 | -0.192
x1 = 0.5859 | -0.183
x1 = 0.6157 | -0.172
x1 = 0.6486 | -0.159
x1 = 0.6853 | -0.144
x1 = 0.7119 | -0.132
x1 = 0.7406 | -0.119
x1 = 0.7718 | -0.106
x1 = 0.8057 | -0.0907
x1 = 0.8233 | -0.0828
x1 = 0.8417 | -0.0752
x1 = 0.8609 | -0.0662
x1 = 0.881 | -0.0564
x1 = 0.9021 | -0.046
x1 = 0.9243 | -0.0352
x1 = 0.9475 | -0.0238
x1 = 0.9719 | -0.0113
x1 = 0.9976 | -0.000599
